Among the data in US20230391760A1, “HETEROCYCLIC GLP-1 AGONISTS” (Gasherbrum Bio, Inc., priority 2020, published 2023) are EC50 values, retold here.

The target in the assay is GLP-1 Receptor (Homo sapiens, UniProt P43220). Nature of the assay: GLP-1R agonist cAMP stimulation assay (HEK293/GLP1R/CRE-LUC cells, cAMP dynamic 2 Kit). In kind it is cell-based. The following applies: HEK293/CRE-Luc cell line stably expressing the GLP-1 Receptor, 30 min at 37° C. In a few lines: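 cAMP measured by HTRF competition (d2-labelled cAMP with cryptate antibody, 1 h, room temperature, protected from light). Before that, GLP1R/CRE-Luc HEK293 cells (1000/well) were exposed for 30 min at 37 °C to half-log compound dilutions in DPBS containing IBMX 0.5 mM and BSA 0.1%.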
GLP-1 Receptor, sequence (P43220 24-463, species assumed): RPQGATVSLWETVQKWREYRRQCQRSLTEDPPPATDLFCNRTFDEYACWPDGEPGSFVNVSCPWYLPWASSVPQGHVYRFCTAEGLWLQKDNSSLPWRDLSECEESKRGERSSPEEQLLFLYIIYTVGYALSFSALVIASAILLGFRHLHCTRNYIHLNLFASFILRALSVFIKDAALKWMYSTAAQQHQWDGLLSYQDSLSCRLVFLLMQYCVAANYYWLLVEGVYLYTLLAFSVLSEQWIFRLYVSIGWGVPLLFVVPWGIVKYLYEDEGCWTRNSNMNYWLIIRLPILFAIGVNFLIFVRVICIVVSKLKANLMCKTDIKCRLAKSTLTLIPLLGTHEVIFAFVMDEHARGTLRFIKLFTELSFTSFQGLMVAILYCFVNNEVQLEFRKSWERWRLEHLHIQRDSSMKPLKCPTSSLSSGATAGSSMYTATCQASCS

Regarding `O=C(Nc1ccc2c(c1)nc(CN1CCC(c3cccc(OCc4ccc(Cl)cc4F)n3)CC1)n2C[C@@H]1CCO1)C1CC(F)(F)C1` [Compound 152a, N-{2-[(4-{6-[(4-chloro-2-fluorophenyl)methoxy]pyridin-2-yl}piperidin-1-yl)methyl]-1-{[(2S)-oxetan-2-yl]methyl}-1H-1,3-benzodiazol-5-yl}-3,3-difluorocyclobutane-1-carboxamide], the EC50 worked out at 0.88 nM.
For `O=c1[nH]c(-c2cc3nc(CN4CC=C(c5ccc(F)c(OCc6ccc(Cl)cc6F)c5)CC4)n(C[C@@H]4CCO4)c3cn2)no1` [Compound 299a, 3-{2-[(4-{3-[(4-chloro-2-fluorophenyl)methoxy]-4-fluorophenyl}-1,2,3,6-tetrahydropyridin-1-yl)methyl]-3-{[(2S)-oxetan-2-yl]methyl}-3H-imidazo[4,5-c]pyridin-6-yl}-4,5-dihydro-1,2,4-oxadiazol-5-one] the value was 0.26 nM; for `COCCC(=O)Nc1ccc2c(c1)nc(CN1CCC(c3cccc(OCc4ccc(Cl)cc4F)n3)CC1)n2C[C@@H]1CCO1` [Compound 107a, (S)—N-(2-((4-(6-((4-chloro-2-fluorobenzyl)oxy)pyridin-2-yl)piperidin-1-yl)methyl)-1-(oxetan-2-ylmethyl)-1H-benzo[d]imidazol-5-yl)-3-methoxypropanamide], 0.337 nM; for `CC1(c2ccc(Cl)cc2)Oc2cccc(C3CCN(Cc4nc5cc(-c6nnc(C(F)(F)F)[nH]6)cnc5n4C[C@@H]4CCO4)CC3)c2O1` (stereo partly drawn) [Compound 225a, 4-[2-(4-chlorophenyl)-2-methyl-2H-1,3-benzodioxol-4-yl]-1-[(3-{[(2S)-oxetan-2-yl]methyl}-6-[5-(trifluoromethyl)-4H-1,2,4-triazol-3-yl]-3H-imidazo[4,5-b]pyridin-2-yl)methyl]piperidine], 0.064 nM.
`CO[C@H](C)Cn1c(CN2CCC(c3cccc4c3OC(C)(c3ccc(Cl)cn3)O4)CC2)nc2cc(-c3nnc(C(F)(F)F)[nH]3)ncc21` (stereo partly drawn) [Compound 428a, 5-chloro-2-{4-[1-({3-[(2R)-2-methoxypropyl]-6-[5-(trifluoromethyl)-4H-1,2,4-triazol-3-yl]-3H-imidazo[4,5-c]pyridin-2-yl}methyl)piperidin-4-yl]-2-methyl-2H-1,3-benzodioxol-2-yl}pyridine]: it took 0.36 nM to reach a half-maximal effect (EC50).
Take `Fc1cc(Cl)ccc1COc1cc(N2CCN(Cc3nc4cc(-c5nnc(C(F)(F)F)[nH]5)nnc4n3C[C@@H]3CCO3)CC2)ccc1F` [Compound 483a, 1-{3-[(4-chloro-2-fluorophenyl)methoxy]-4-fluorophenyl}-4-[(7-{[(2S)-oxetan-2-yl]methyl}-3-[5-(trifluoromethyl)-4H-1,2,4-triazol-3-yl]-7H-imidazo[4,5-c]pyridazin-6-yl)methyl]piperazine]: the response was half-maximal at 0.51 nM (EC50).
For `O=C(Nc1ccc2c(c1)nc(CN1CCC(c3cccc(OCc4ccc(Cl)cc4F)n3)CC1)n2C[C@@H]1CCO1)C1CCC(F)(F)C1` (stereo partly drawn) [Compound 186a, N-{2-[(4-{6-[(4-chloro-2-fluorophenyl)methoxy]pyridin-2-yl}piperidin-1-yl)methyl]-1-{[(2S)-oxetan-2-yl]methyl}-1H-1,3-benzodiazol-5-yl}-3,3-difluorocyclopentane-1-carboxamide] the value was 3 nM.
The value for `CC1(c2ccc(Cl)cn2)Oc2cccc(C3=CCN(Cc4nc5cc(-c6nnc(C7CC7)[nH]6)cnc5n4C[C@@H]4CCO4)CC3)c2O1` (stereo partly drawn) [Compound 416a, 5-chloro-2-[4-(1-{[6-(5-cyclopropyl-4H-1,2,4-triazol-3-yl)-3-{[(2S)-oxetan-2-yl]methyl}-3H-imidazo[4,5-b]pyridin-2-yl]methyl}-1,2,3,6-tetrahydropyridin-4-yl)-2-methyl-2H-1,3-benzodioxol-2-yl]pyridine] was 14 nM.
As for `CCc1ccc(C(=O)Nc2ccc3c(c2)nc(CN2CCC(c4cccc(OCc5ccc(Cl)cc5F)n4)CC2)n3C[C@@H]2CCO2)cn1` [Compound 174a, N-{2-[(4-{6-[(4-chloro-2-fluorophenyl)methoxy]pyridin-2-yl}piperidin-1-yl)methyl]-1-{[(2S)-oxetan-2-yl]methyl}-1H-1,3-benzodiazol-5-yl}-6-ethylpyridine-3-carboxamide], the EC50 was determined as 0.56 nM.
The value for `CC1(c2ccc(C#N)cc2F)Oc2cccc(C3CCN(Cc4nc5cc(-c6nnc(C(F)(F)F)[nH]6)nnc5n4C[C@@H]4CCO4)CC3)c2O1` (stereo partly drawn) [Compound 273a, 3-fluoro-4-(2-methyl-4-{1-[(7-{[(2S)-oxetan-2-yl]methyl}-3-[5-(trifluoromethyl)-4H-1,2,4-triazol-3-yl]-7H-imidazo[4,5-c]pyridazin-6-yl)methyl]piperidin-4-yl}-2H-1,3-benzodioxol-2-yl)benzonitrile] was 0.019 nM; that for `O=C(Nc1ccc2c(c1)nc(CN1CCC(c3cccc(OCc4ccc(Cl)cc4F)n3)CC1)n2C[C@@H]1CCO1)C(F)(F)F` [Compound 167a, N-{2-[(4-{6-[(4-chloro-2-fluorophenyl)methoxy]pyridin-2-yl}piperidin-1-yl)methyl]-1-{[(2S)-oxetan-2-yl]methyl}-1H-1,3-benzodiazol-5-yl}-2,2,2-trifluoroacetamide] was 1.1 nM.
Regarding `Cc1nnc(-c2ccc3c(c2)nc(CN2CCC(c4cccc5c4OC(C)(c4ccc(Cl)cc4F)O5)CC2)n3C[C@@H]2CCO2)[nH]1` (stereo partly drawn) [Compound 243a, 2-({4-[2-(4-chloro-2-fluorophenyl)-2-methyl-2H-1,3-benzodioxol-4-yl]piperidin-1-yl}methyl)-5-(5-methyl-4H-1,2,4-triazol-3-yl)-1-{[(2S)-oxetan-2-yl]methyl}-1H-1,3-benzodiazole], the EC50 turned out to be 0.052 nM.
For the compound `Fc1cc(Cl)ccc1COc1cc(C2=CCN(Cc3nc4cc(-c5nnc(C(F)(F)F)[nH]5)ncc4n3C[C@@H]3CCO3)CC2)ccc1F` [Compound 297a, 4-{3-[(4-chloro-2-fluorophenyl)methoxy]-4-fluorophenyl}-1-[(3-{[(2S)-oxetan-2-yl]methyl}-6-[5-(trifluoromethyl)-4H-1,2,4-triazol-3-yl]-3H-imidazo[4,5-c]pyridin-2-yl)methyl]-1,2,3,6-tetrahydropyridine], a half-maximal response (EC50) required 0.098 nM.
Take `N#Cc1ccc(COc2cc(C3=CCN(Cc4nc5cc(-c6noc(=O)[nH]6)cnc5n4C[C@@H]4CCO4)CC3)ccc2F)c(F)c1` [Compound 295a, 3-fluoro-4-[(2-fluoro-5-{1-[(3-{[(2S)-oxetan-2-yl]methyl}-6-(5-oxo-4,5-dihydro-1,2,4-oxadiazol-3-yl)-3H-imidazo[4,5-b]pyridin-2-yl)methyl]-1,2,3,6-tetrahydropyridin-4-yl}phenoxy)methyl]benzonitrile]: it took 2.6 nM to reach a half-maximal effect (EC50).
Turning to `Fc1cc(Cl)ccc1COc1cccc(C2=CCN(Cc3nc4cc(-c5nnc(C(F)(F)F)[nH]5)cnc4n3C[C@@H]3CCO3)CC2)n1` [Compound 323a, 6-[(4-chloro-2-fluorophenyl)methoxy]-1′-[(3-{[(2S)-oxetan-2-yl]methyl}-6-[5-(trifluoromethyl)-4H-1,2,4-triazol-3-yl]-3H-imidazo[4,5-b]pyridin-2-yl)methyl]-1′,2′,3′,6′-tetrahydro-2,4′-bipyridine], the midpoint of the response, the EC50, lay at 0.016 nM.
The value for `Fc1cc(Cl)ccc1COc1nc(C2CCN(Cc3nc4cc(-c5nnc(C(F)(F)F)[nH]5)nnc4n3C[C@@H]3CCO3)CC2)ncc1F` [Compound 510a, 4-[(4-chloro-2-fluorophenyl)methoxy]-5-fluoro-2-{1-[(7-{[(2S)-oxetan-2-yl]methyl}-3-[5-(trifluoromethyl)-4H-1,2,4-triazol-3-yl]-7H-imidazo[4,5-c]pyridazin-6-yl)methyl]piperidin-4-yl}pyrimidine] was 0.16 nM; that for `C[C@H]1CN(c2ncc(F)c(OCc3ccc(Cl)cc3F)n2)CCN1Cc1nc2cc(-c3nnc(C(F)(F)F)[nH]3)nnc2n1C[C@@H]1CCO1` [Compound 512a, 4-[(4-chloro-2-fluorophenyl)methoxy]-5-fluoro-2-[(3S)-3-methyl-4-[(7-{[(2S)-oxetan-2-yl]methyl}-3-[5-(trifluoromethyl)-4H-1,2,4-triazol-3-yl]-7H-imidazo[4,5-c]pyridazin-6-yl)methyl]piperazin-1-yl]pyrimidine] was 0.14 nM.
With `Fc1cc(Cl)ccc1COc1nc(C2CCN(Cc3nc4cc(-c5nnc(C(F)(F)F)[nH]5)ncc4n3C[C@@H]3CCO3)CC2)ncc1F` [Compound 491a, 4-[(4-chloro-2-fluorophenyl)methoxy]-5-fluoro-2-{1-[(3-{[(2S)-oxetan-2-yl]methyl}-6-[5-(trifluoromethyl)-4H-1,2,4-triazol-3-yl]-3H-imidazo[4,5-c]pyridin-2-yl)methyl]piperidin-4-yl}pyrimidine], the EC50 came to 0.057 nM.
As for `C[C@]1(c2ccc(Cl)cc2F)Oc2cccc(C3CCN(Cc4nc5cc(-c6nnc(C(F)(F)F)[nH]6)ncc5n4C[C@@H]4CCO4)CC3)c2O1` [Compound 366a, 4-[(2S)-2-(4-chloro-2-fluorophenyl)-2-methyl-2H-1,3-benzodioxol-4-yl]-1-[(3-{[(2S)-oxetan-2-yl]methyl}-6-[5-(trifluoromethyl)-4H-1,2,4-triazol-3-yl]-3H-imidazo[4,5-c]pyridin-2-yl)methyl]piperidine], a half-maximal response (EC50) required 0.012 nM.
Turning to `CC(=O)Nc1cnc2c(c1)nc(CN1CCC(c3cccc(OCc4ccc(Cl)cc4F)n3)CC1)n2C[C@@H]1CCO1` [Compound 131a, N-{2-[(4-{6-[(4-chloro-2-fluorophenyl)methoxy]pyridin-2-yl}piperidin-1-yl)methyl]-3-{[(2S)-oxetan-2-yl]methyl}-3H-imidazo[4,5-b]pyridin-6-yl}acetamide], a half-maximal response (EC50) required 6.3 nM.
As to `CC1(c2ccc(C#N)cc2F)Oc2cccc(C3CCN(Cc4nc5cc(-c6nnc(C7CC7)[nH]6)ccc5n4C[C@@H]4CCO4)CC3)c2O1` (stereo partly drawn) [Compound 277a, 4-[4-(1-{[5-(5-cyclopropyl-4H-1,2,4-triazol-3-yl)-1-{[(2S)-oxetan-2-yl]methyl}-1H-1,3-benzodiazol-2-yl]methyl}piperidin-4-yl)-2-methyl-2H-1,3-benzodioxol-2-yl]-3-fluorobenzonitrile], the concentration giving a half-maximal response (EC50) is 0.15 nM.

As usually defined, the EC50 is the midpoint of the concentration-response curve. A lower EC50 goes with higher potency in that assay.
